Columns and labels:
Format in all cases: binding
cyclic RGD peptide [1] = assay: Nanopore (approximately 12 nm) junction device functionalized with cyclic RGD peptide
Procedure: Accordingly, in some embodiments, the background signal corresponds to the number of molecules adsorbed on the electrodes. This can be substantiated by collecting signals from a device small enough to allow only one integrin molecule to be trapped. In such a device, experiments were performed where the electrode edges were exposed by drilling a nanopore of approximately 12 nm diameter through the junction device. The electrodes were functionalized again with the cyclic RGD peptide. […] However, when 1 nM αVβ3 integrin is added a signal is generated (FIG. 11). […] This is because there is room for only one molecule at a time in the device, and this confirms that, in some embodiments, the background current arises from adsorption of many molecules.

cyclic RGD peptide [2] = assay: STM experiment, gold probe functionalized with RGD peptide over bare gold substrate; settings: 100 nM protein, starting gap 2.7 nm
From the text: Accordingly, in some embodiments, functionalizing just one of a pair of electrodes generates a unique electrical recognition signal for a corresponding molecule(s). To do this, a scanning tunneling microscope (STM) was used (see STM, FIG. 5A), where a gold probe 51 was functionalized with the RGD peptide 53 via the chemical interaction between the cysteine residue and the gold. The probe was positioned at a set point bias (V) and current (I) such that the apex of the probe was held approximately 2.7 nm above a bare gold substrate, 52. As the probe was pulled away an extra distance ΔZ from the surface, a decaying current could be observed during some of the experiments (e.g., feature 57 in FIG. 5B). However, in the absence of the αVβ3 integrin, no other features were observed, even if fairly high concentrations (e.g., 100 nM) of a protein such as BSA were added to the solution in the STM. Once 100 nM αVβ3 integrin 56 was added to the solution, a new feature appeared as a current peak away from the origin 58 in FIG. 5B.
In contrast to conventional tunneling signals, these signals peak when the probe is some distance away from the surface, signifying that the probe has captured a conductive particle.

cyclic RGD peptide [3] = assay: Fixed-gap (5 nm) MEMED tunnel chip functionalized with cyclic RGD peptide; parameters: signal in fixed-gap device: dose or concentration left out as unconfirmed
Procedure: A fixed gap tunneling device has significant advantages over STM measurements. […] It is fabricated much as described in our earlier paper. The basic fabrication of the layered device (10 nm Pd, 4 to 5 nm Al2O3 followed by 10 nm Pd, resting on top of a 25 nm SiN substrate and passivated on top with SiO2) was carried out by Norcada Inc. (Edmonton, Alberta). Our original devices had large (micron-scale) openings, but it was desired to restrict the region over which proteins could be captured to dimensions small enough that the capture of multiple molecules in the tunnel junction was unlikely (illustrated schematically by the capture of a single integrin in FIG. 16A). RIE was used to thin the underlying SiN substrate to ˜15 nm, followed by e-beam lithography using a hard mask and further RIE etching (FIG. 16C and Methods). In this way, slits were produced that were 50 to 100 nm across and up to 400 nm long, though the active area was defined by the top electrode widths of about 100 nm (FIG. 16C). After cleaning and functionalization (Methods) the device was immersed in 1 mM phosphate buffer (pH=7.4) with the electrode potentials controlled with respect to an Ag/AgCl electrode coupled via a salt bridge (SB in FIG. 16A).
Our devices often suffer from failure of the passivation layer (SiO2 in FIG. 16B) so that, even in the dilute electrolyte, leakage currents can be substantial (e.g., a few nA, FIG. 16D). […] Thus, these are currents that pass from exposed regions of the top electrodes via the electrolyte, and they are not a consequence of tunneling or electrochemical leakage across the tunnel gap itself. These leakage currents (FIG. 16D) show no distinctive features beyond the shot- and system electronic noise (distributed as a Gaussian, FIG. 16E). When […] α1β4 protein was added (FIG. 16F) the background current falls a little, presumably because of passivation of the exposed electrodes by non-specific adsorption of this protein. Once again, the signal is featureless, displaying the same intrinsic noise as observed in buffer alone (FIG. 16G). (In contrast to the STM measurements, no features have been observed in the fixed-gap devices in any measurement taken in the presence of α1β4.) However, once αVβ3 protein is added to the same device, dramatic jumps occur in the current (FIG. 16H). The background leakage current is reduced by about 20% on addition of the protein, consistent with the passivation effect seen in the macroscopic electrochemical measurements (FIGS. 14B, 14C). The signal jumps up from the baseline to two well defined levels (FIG. 16I) in this case. The states are separated by nearly 0.5 nA, corresponding to ˜1.5 nS conductance (Vt=0.3V). […]

Substance | fluctuating current component (cyclic RGD peptide [1]; 1 nM) | current peak features on probe withdrawal (cyclic RGD peptide [2]) | signal in undiluted Serasub (protein-free serum substitute) (cyclic RGD peptide [3]; 0.1 nM, tunneling bias 200 mV) [LS signals were observed] | conductance of current jump (cyclic RGD peptide [3]; Vt=0.3V, 5 nm gap) [nS] | separation of current states (current jumps) (cyclic RGD peptide [3]; Vt=0.3V, 5 nm gap) [nA] | signal in nanopore device (cyclic RGD peptide [1]; 1 nM solution) | signal in fixed-gap device (cyclic RGD peptide [3]; protein added)
αvβ3: ~200 kD αVβ3 extracelluar domain of human integrin, target protein bound by cyclic RGD peptide | about 0.2 nA | many tens of picoamps | 2 | ~1.5 | ~0.5 | – | –
α4β1: homologous, weakly-binding integrin protein used as a control | – | – | – | – | – | no signals are generated | featureless
